Values quoted from earlier work in patent US20160045465A1, “THERAPEUTIC FORMULATIONS FOR THE TREATMENT OF COLD AND FLU-LIKE SYMPTOMS” (Kingsway Pharmaceuticals Inc., priority 2007, published 2016).
Structures can show the parent of a compound that is named as a salt. Where two headings read alike, the source gives them in different places.

Experiments:
[1] = not given; remark: listed apart in the source
[2] = in vivo
[3] = children, ibuprofen suspension, oral
[4] = oral, 30 mg as tablets or oral solution

## CC(=O)Nc1ccc(O)cc1 [acetaminophen, N-(4-hydroxyphenyl)ethanamide]
In vivo
  fraction in the body undergoing conjugation (glucuronic acid, sulphuric acid): 80-85%
  plasma half-life: 1.2 to 3.0 h
Oral administration of immediate release acetaminophen preparations
  time to peak plasma concentrations: 0.167 to 1 h

## CC(C)Cc1ccc(C(C)C(=O)O)cc1 (centres unmarked) [ibuprofen, 2-[4-(2-methylpropyl)phenyl]propanoic acid]
fever; [3]
  onset of antipyretic effect: ≤ 1 h
  time of peak antipyretic effect: 2 to 4 h
fever; single ibuprofen suspension doses of 10-mg/kg
  duration of antipyretic effect: up to 8 hours
Conventional tablets
  time to reach maximal plasma concentration: approximately 120 minutes
Following oral administration
  time until excretion is essentially complete: ≤ 24 h
In vivo, po
  fraction of an oral dose absorbed from the GI tract: Approximately 80%
With food
  reduction of peak plasma concentrations when administered with food: 30-50%
With food, given as 'reduced by'
  change of time to achieve peak plasma concentrations when administered with food: 30 to 60 min

## CNC[C@H](O)c1cccc(O)c1 [phenylephrine hydrochloride]
[1]
  pKa: 8.86

## CNC[C@H](O)c1cccc(O)c1 [phenylephrine]
[2]
  efficacy compared with pseudoephedrine: less efficacious than pseudoephedrine
Nasal congestion; oral phenylephrine
  duration of nasal decongestion: 2 to 4 h
  onset of nasal decongestion: 15 to 20 min
In vivo
  elimination half-life: 2 to 3 h
oral
  bioavailability following oral administration: approximately 38%
  time of peak serum concentrations: 0.75 to 2.0 h

## CN[C@@H](C)[C@@H](O)c1ccccc1 [pseudoephedrine hydrochloride]
Nasal congestion; 120 mg in extended-release capsules
  duration of nasal decongestion: up to 12 hours
Nasal congestion; oral administration of 60 mg
  duration of nasal decongestion: 8 h
Nasal congestion; [4]
  duration of nasal decongestion: 4 to 6 h
  onset of nasal decongestion: ≤ 30 min

## CN[C@@H](C)[C@@H](O)c1ccccc1 [pseudoephedrine]
60-mg dose as an oral solution
  time to peak plasma concentrations: 1.39 to 2.0 h
120-mg dose as an oral solution
  time to peak plasma concentrations: 1.84 to 1.97 h
extended-release products
  time to peak plasma concentrations: 3.8 to 6.1 h
In vivo
  fraction of a dose excreted unchanged in urine: 55-96%
Urinary pH 5
  elimination half-life: 3 to 6 h
Urinary pH 5.8
  elimination half-life: 5 to 8 h
Urinary pH 8
  elimination half-life: 9 to 16 h
